Experimental data: paper PMC11862611 (RSC Medicinal Chemistry, 2025)
pEC50: −log10 of the molar value.

Legend:
[1] = target: T1, M1 (h) (antagonist radioligand) (Homo sapiens, UniProt P11229); assay: radioligand displacement assay, M1; format: binding
T1 construct: purchased Eurofins (contract assay); host or cells: cell membrane homogenates
T1 sequence (P11229 1-460): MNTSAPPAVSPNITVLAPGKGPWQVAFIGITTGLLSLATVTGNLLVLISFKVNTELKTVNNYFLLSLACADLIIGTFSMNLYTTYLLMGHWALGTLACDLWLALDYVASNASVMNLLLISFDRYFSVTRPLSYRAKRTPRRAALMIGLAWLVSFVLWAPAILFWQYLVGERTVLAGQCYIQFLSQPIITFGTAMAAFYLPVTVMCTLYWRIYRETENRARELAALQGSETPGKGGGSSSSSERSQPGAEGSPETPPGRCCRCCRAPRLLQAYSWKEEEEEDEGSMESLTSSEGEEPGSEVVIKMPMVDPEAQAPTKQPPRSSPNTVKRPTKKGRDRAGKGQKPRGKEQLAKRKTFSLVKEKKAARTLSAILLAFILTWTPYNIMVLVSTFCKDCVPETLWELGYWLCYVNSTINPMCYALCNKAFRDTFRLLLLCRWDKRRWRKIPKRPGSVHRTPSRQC
Method: (§1) 4.2.3.6. Radioligand Binding Assay (Supplemental Figure S3)
(§2) These assays were run by Eurofins under contract to LifeArc FR095-0011887. A representative protocol describing the human histamine H2 receptor (antagonist radioligand) assay is shown below.12 Cell membrane homogenates (24 µg protein) are incubated for 120 min at 22°C with 0.075 nM [125I]APT in the absence or presence of the test compound in a buffer containing 50 mM Na2HPO4/KH2PO4 (pH […]
(§3) 7.4) and 0.05% BSA. […] Following

[2] = test system: L. amazonensis GFP promastigotes; assay: mouse model of L. amazonensis infection (ear, IL dosing); format: in vivo, BALB/c mice; details: 1.2 mg kg^−1 IL twice a week for 4 weeks
Method: Consequently, we used IL dosing for this experiment. To enable direct comparison with CF, the same treatment regimen (dose of 1.2 mg kg^−1via IL injection twice a week for 4 weeks starting on DPI) was used for both compounds.
A Weight variation of mice during 28 days of treatment. B Progression of lesion thickness over 28 day treatment period. C Representative photographs of the infected ear for each group taken after completion of treatment, D parasite burden was evaluated by LDA on 36 days post infection. […]
In vivo assays were conducted as previously reported 1. Two month old BALB/c female mice, weighing 20 - 25 g and of approximately the same age were used for the study. For infection of mice, stationary phase GFP L. amazonensis promastigotes were collected, washed and suspended in sterile PBS. A volume of 10 μl of sterile PBS containing 2 x 10^6 parasites was injected into the right ear. […]
Infected ear thicknesses were measured once or twice a week with a caliper gauge, and the lesion sizes were expressed as the difference between the thickness of infected and non-infected ear. On day 41 animals were sacrificed and the fluorescence measured (485 - 528 nm) and parasite load quantified using a limiting dilution assay (LDA).
Data on lesion progression were analysed for statistical significance by using the Dunnett test as part of the one-way ANOVA (GraphPad Prism 8 software). […]

[3] = target: T2, M5 (h) (antagonist radioligand) (Homo sapiens, UniProt P08912); assay: radioligand displacement assay, M5; format: binding
T2 construct: purchased Eurofins (contract assay); host or cells: cell membrane homogenates
T2 sequence (P08912 1-532): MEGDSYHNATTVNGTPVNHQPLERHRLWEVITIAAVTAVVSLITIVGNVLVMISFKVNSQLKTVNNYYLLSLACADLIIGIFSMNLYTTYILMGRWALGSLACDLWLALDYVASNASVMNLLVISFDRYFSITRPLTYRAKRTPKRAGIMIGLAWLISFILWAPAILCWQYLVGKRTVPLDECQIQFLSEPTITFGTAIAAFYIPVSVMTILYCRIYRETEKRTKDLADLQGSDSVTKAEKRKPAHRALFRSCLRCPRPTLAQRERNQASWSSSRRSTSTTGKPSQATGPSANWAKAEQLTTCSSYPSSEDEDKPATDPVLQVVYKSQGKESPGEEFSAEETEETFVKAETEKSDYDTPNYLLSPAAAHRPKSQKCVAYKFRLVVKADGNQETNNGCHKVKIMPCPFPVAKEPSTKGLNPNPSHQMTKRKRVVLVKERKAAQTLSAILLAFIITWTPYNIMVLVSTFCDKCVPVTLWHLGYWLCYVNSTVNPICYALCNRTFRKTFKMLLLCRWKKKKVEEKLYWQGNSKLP
Method: as §1, §2, §3

[4] = test system: L. major promastigotes (FV1) WT; assay: anti-promastigote assay, L. major (resazurin); format: cell-based; details: Leishmania major; promastigote parasites (Table 1); read-out: L.mj EC50
Method: 4.2.3.1. Anti-promastigote assays
L. major promastigotes (FV1) WT, PX and Δ LCB2 in Schneider’s insect medium (100 μL at 1 × 106 mL−1) were incubated in 96-well plates with compounds in triplicate (amphotericin B and cycloheximide were used as positive controls, and untreated parasites with 1% DMSO as a negative control) at 26 °C for 48 h.
Resazurin Solution (10 μL) was then added and the plate incubated at 26 °C for 4 h prior to measurement using a fluorescence plate reader (555 - 585 nm). EC50 values were calculated using sigmoidal regression analysis (GraphPad Prism). […]
well-1 in a 24-well plate with round cover slips and incubated for 24 h at 37 °C and 5% CO2. […]

[5] = target: T3, M4 (h) (antagonist radioligand) (Homo sapiens, UniProt P08173); assay: radioligand displacement assay, M4; format: binding
T3 construct: purchased Eurofins (contract assay); host or cells: cell membrane homogenates
T3 sequence (P08173 1-479): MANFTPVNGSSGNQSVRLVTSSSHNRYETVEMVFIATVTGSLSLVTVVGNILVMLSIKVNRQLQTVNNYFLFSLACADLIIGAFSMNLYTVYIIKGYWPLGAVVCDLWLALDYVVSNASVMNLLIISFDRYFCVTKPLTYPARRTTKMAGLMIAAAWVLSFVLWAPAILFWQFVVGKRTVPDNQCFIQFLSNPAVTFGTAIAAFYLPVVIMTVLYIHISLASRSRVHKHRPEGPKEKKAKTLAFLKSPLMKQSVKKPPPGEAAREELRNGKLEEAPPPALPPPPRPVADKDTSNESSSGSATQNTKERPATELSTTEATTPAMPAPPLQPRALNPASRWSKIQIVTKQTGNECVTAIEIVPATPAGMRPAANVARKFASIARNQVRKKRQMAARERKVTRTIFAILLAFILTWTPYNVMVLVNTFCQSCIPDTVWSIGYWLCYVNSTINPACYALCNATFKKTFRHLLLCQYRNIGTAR
Method: as §1, §2, §3

[6] = test system: L. major ΔLCB2 promastigotes; format: cell-based, Leishmania major; details: EC50 WT versus ΔLCB2 L. major promastigotes

What does the source list for `C[C@H]1CCCN1CCCO[C@H](c1ccccc1)c1ccc(Cl)cc1` [38l]?
effective binding, radioligand displacement, M1 [1]: > 40%; lesion growth trends ([2]; 35 days post-infection): similar; parasitaemia (parasite burden by LDA) versus untreated group ([2]; LDA 36 days post infection): statistically significant reduction; affinity, radioligand displacement, M5 [3]: lower affinity; pEC50 [4]: 7.52; effective binding, radioligand displacement, M4 [5]: > 40%; times more active against WT than mutant ΔLCB2 promastigotes [6]: approximately 3 times
